Source: PMC6704710, “Preclinical evaluation of 3D185, a novel potent inhibitor of FGFR1/2/3 and CSF-1R, in FGFR-dependent and macrophage-dominant cancer models” (Journal of Experimental & Clinical Cancer Research : CR, 2019)

Assays:
Test in all cases: Eurofins kinase panel
Format in all cases: biochemical
Conditions in all cases: read-out: Inhibition rate (%)
PI3KC2γ(h) = target: T1, PI3KC2γ(h) (Homo sapiens, UniProt O75747)
T1 construct: purchased Eurofins (KinaseProfiler)
T1 sequence (O75747 1-1486): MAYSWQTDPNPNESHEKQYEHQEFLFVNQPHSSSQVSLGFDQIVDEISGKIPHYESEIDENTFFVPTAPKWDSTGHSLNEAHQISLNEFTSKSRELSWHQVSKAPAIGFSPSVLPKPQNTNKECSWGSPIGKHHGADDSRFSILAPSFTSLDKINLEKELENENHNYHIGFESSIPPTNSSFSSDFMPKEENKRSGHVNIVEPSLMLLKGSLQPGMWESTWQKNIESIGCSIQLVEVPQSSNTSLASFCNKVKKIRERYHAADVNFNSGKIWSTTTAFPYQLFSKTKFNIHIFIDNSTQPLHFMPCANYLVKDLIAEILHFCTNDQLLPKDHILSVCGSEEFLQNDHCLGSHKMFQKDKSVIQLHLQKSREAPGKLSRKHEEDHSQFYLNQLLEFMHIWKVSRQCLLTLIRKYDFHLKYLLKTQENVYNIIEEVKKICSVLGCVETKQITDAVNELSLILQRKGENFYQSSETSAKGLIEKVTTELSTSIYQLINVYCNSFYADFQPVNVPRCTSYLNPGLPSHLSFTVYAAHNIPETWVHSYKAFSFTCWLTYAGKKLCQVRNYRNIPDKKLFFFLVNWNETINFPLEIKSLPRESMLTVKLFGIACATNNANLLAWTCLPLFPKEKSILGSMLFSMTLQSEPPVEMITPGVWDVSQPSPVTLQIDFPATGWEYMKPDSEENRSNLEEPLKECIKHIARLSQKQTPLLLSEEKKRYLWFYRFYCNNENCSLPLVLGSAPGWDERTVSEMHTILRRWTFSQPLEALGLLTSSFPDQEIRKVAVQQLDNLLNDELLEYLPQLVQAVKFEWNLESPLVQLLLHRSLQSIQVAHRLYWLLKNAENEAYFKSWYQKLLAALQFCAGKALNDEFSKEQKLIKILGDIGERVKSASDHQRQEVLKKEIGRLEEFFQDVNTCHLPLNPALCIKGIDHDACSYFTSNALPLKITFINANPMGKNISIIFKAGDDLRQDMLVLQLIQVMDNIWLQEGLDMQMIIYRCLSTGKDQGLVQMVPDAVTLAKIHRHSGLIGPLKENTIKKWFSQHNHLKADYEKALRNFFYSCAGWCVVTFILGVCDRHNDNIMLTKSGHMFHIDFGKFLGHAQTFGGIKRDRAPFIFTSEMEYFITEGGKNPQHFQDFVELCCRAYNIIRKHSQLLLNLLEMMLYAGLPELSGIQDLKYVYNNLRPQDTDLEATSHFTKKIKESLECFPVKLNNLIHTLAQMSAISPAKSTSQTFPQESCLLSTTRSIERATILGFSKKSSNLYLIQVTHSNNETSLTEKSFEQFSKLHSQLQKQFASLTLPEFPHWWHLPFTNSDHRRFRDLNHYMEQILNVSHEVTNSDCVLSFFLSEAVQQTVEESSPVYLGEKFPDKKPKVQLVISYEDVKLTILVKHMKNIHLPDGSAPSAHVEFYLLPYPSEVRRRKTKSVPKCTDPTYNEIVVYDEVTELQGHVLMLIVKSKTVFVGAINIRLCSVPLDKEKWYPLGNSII

DYRK3(h) = target: T2, DYRK3(h) (Homo sapiens, UniProt O43781)
T2 construct: purchased Eurofins (KinaseProfiler)
T2 sequence (O43781 1-588): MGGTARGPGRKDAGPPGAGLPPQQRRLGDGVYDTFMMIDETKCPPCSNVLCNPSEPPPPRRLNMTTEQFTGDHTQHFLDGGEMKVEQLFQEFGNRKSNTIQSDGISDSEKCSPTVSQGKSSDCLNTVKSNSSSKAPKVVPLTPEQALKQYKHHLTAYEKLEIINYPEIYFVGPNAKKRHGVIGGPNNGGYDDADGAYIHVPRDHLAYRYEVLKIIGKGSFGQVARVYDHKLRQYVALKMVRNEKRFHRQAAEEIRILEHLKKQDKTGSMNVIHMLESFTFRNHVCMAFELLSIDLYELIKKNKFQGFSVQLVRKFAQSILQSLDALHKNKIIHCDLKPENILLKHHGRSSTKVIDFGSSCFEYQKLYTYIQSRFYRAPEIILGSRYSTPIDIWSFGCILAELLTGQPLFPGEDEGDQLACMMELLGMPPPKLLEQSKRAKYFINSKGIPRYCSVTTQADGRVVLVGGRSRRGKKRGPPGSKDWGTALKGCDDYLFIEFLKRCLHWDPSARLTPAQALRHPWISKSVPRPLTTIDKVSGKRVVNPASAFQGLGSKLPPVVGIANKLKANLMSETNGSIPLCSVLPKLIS

DYRK1A(h) = target: T3, DYRK1A(h) (Homo sapiens, UniProt Q13627)
T3 construct: purchased Eurofins (KinaseProfiler)

EGFR(T790M)(h) = target: T4, EGFR(T790M)(h) (Homo sapiens, UniProt P00533, T790M)
T4 construct: purchased Eurofins (KinaseProfiler)
T4 sequence (P00533 25-1210 T790M): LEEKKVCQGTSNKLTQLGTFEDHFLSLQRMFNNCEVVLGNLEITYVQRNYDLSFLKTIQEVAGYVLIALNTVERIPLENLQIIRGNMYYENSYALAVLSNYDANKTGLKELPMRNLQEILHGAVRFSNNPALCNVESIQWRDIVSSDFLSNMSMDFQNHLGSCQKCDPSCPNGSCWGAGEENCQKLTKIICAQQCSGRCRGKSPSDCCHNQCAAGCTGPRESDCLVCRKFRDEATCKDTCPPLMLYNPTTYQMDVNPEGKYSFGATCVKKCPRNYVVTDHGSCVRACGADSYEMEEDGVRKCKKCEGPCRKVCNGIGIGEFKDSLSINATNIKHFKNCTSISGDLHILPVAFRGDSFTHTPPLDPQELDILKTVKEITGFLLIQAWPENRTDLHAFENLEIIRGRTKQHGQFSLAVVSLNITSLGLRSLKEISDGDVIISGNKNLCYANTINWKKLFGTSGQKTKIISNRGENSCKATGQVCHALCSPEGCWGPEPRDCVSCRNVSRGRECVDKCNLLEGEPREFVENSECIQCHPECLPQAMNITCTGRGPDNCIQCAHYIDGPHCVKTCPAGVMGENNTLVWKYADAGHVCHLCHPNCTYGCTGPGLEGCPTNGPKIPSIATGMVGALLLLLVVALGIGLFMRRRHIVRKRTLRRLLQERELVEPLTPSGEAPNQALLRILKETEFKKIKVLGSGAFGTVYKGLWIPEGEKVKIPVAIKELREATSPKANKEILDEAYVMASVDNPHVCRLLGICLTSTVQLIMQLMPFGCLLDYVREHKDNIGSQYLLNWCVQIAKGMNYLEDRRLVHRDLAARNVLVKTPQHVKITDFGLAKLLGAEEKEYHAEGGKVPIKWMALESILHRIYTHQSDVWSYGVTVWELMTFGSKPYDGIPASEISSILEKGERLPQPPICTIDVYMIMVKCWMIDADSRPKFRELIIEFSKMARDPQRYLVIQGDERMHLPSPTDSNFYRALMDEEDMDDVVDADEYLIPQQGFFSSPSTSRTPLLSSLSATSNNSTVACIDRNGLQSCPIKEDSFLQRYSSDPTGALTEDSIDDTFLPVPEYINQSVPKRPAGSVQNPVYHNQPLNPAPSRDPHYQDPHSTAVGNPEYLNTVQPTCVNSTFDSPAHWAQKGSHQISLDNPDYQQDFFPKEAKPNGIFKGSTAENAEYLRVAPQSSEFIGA

MEK1(h) = target: T5, MEK1(h) (Homo sapiens, UniProt Q02750)
T5 construct: purchased Eurofins (KinaseProfiler)
T5 sequence (Q02750 whole entry): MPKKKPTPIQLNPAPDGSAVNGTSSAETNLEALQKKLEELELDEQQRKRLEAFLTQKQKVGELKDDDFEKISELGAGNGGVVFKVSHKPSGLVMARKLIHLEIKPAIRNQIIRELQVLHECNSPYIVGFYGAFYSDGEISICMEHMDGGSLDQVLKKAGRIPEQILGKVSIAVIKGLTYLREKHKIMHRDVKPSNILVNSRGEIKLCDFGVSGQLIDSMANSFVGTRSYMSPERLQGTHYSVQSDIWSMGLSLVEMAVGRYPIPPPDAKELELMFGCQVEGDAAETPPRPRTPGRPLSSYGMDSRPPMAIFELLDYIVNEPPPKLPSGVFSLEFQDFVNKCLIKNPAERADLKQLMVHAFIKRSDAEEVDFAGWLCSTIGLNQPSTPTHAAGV

HIPK2(h) = target: T6, HIPK2(h) (Homo sapiens, UniProt Q9H2X6)
T6 construct: purchased Eurofins (KinaseProfiler)
T6 sequence (Q9H2X6 whole entry): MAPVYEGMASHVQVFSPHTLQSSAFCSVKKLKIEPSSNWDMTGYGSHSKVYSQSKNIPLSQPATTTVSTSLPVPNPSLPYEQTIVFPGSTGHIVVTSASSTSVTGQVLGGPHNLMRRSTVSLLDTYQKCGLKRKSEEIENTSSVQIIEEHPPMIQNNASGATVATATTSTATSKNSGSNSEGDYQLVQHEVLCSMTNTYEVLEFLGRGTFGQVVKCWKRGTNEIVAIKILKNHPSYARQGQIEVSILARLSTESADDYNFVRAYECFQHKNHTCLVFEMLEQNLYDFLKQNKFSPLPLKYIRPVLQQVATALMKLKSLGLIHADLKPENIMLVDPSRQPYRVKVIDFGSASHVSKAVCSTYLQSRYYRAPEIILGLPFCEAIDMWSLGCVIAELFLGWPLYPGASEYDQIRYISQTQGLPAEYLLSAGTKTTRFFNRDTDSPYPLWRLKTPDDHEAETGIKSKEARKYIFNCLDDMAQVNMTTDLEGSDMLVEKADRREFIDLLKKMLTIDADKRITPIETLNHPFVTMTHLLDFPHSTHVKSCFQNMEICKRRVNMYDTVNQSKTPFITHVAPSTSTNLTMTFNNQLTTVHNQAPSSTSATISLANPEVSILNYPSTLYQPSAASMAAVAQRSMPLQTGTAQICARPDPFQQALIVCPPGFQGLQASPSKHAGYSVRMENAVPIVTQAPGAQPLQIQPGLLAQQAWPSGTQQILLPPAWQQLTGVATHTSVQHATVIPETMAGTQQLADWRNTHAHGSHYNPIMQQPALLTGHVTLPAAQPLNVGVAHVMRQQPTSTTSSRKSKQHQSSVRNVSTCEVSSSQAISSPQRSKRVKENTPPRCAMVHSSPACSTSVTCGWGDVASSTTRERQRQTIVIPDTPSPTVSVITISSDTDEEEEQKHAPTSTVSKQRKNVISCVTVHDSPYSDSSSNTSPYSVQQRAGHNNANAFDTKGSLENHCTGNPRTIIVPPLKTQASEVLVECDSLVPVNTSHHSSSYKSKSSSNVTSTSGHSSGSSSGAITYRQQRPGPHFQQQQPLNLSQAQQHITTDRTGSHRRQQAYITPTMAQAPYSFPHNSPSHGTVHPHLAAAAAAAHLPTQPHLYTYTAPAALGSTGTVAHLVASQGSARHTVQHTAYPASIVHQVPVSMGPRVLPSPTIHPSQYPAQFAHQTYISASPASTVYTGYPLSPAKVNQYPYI

Fes(h) = target: T7, Fes(h) (Homo sapiens, UniProt P07332)
T7 construct: purchased Eurofins (KinaseProfiler)

[1] = target: T8, PI3 Kinase (p110β/p85α)(h) (Homo sapiens, UniProt P42338)
T8 construct: purchased Eurofins (KinaseProfiler)
T8 sequence (P42338 whole entry): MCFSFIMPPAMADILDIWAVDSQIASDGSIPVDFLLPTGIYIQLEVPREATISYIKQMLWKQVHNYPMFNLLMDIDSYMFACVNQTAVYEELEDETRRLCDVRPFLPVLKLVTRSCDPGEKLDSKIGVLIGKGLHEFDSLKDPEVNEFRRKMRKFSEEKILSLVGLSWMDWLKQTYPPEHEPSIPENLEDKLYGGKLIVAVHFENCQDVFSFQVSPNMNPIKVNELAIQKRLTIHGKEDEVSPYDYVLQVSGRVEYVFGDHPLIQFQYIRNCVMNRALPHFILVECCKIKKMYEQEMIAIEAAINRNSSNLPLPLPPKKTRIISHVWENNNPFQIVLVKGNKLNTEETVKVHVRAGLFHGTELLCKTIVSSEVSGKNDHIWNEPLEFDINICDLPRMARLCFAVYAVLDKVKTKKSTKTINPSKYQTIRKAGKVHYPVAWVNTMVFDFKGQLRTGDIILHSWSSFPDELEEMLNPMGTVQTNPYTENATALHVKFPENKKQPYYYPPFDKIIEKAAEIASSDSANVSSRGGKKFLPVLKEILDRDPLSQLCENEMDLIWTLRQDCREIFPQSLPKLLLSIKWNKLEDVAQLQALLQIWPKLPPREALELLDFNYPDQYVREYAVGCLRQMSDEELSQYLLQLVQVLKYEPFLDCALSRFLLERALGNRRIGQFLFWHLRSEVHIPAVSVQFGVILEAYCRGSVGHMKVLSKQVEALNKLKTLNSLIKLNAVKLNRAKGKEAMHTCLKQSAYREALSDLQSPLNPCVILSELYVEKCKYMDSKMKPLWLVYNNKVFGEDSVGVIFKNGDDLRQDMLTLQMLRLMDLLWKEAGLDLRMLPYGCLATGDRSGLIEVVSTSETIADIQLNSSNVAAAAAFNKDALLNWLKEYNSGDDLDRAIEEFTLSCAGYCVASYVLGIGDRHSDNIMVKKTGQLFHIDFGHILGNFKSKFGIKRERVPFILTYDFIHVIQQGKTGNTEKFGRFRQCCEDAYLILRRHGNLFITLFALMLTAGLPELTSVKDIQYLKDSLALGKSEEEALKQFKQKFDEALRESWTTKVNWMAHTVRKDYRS
T8 sequence (P27986 whole entry partner): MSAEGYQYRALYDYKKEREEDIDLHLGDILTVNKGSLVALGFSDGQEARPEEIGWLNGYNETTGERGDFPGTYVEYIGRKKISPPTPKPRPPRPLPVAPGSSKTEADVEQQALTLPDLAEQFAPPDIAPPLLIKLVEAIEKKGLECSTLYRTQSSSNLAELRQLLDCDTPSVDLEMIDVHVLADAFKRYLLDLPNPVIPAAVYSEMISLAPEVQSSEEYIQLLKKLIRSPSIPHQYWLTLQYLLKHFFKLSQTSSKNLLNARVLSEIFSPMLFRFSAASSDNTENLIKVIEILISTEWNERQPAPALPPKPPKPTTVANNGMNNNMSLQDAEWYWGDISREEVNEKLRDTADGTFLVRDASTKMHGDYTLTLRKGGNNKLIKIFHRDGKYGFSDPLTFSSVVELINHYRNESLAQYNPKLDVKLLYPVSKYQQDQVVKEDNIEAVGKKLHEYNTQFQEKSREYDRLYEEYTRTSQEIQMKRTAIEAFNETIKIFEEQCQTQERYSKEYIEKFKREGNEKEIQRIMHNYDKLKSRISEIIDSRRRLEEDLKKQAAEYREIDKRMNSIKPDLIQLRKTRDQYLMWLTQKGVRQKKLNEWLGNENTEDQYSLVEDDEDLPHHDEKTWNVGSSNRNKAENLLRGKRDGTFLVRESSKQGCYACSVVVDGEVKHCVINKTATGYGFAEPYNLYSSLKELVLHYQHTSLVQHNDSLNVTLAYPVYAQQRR

SLK(h) = target: T9, SLK(h) (Homo sapiens, UniProt Q9H2G2)
T9 construct: purchased Eurofins (KinaseProfiler)

COc1cc(OC)c(Cl)c(-c2ccc3c(NC(=O)c4ccc(N5CCNC(C)(C)C5)cc4)n[nH]c3n2)c1Cl [3D185]
inhibition at 0.01 µM (PI3KC2γ(h); 10 nM): -4% | inhibition at 0.1 µM (PI3KC2γ(h); 100 nM): -4% | inhibition at 1 µM (PI3KC2γ(h); 1000 nM): 1% | inhibition at 0.01 µM (DYRK3(h); 10 nM): -24% | inhibition at 0.1 µM (DYRK3(h); 100 nM): -31% | inhibition at 1 µM (DYRK3(h); 1000 nM): -27% | inhibition at 0.01 µM (DYRK1A(h); 10 nM): -4% | inhibition at 0.1 µM (DYRK1A(h); 100 nM): 1% | inhibition at 1 µM (DYRK1A(h); 1000 nM): 5% | inhibition at 0.01 µM (EGFR(T790M)(h); 10 nM): -15% | inhibition at 0.1 µM (EGFR(T790M)(h); 100 nM): -8% | inhibition at 1 µM (EGFR(T790M)(h); 1000 nM): 29% | inhibition at 0.01 µM (MEK1(h); 10 nM): 10% | inhibition at 0.1 µM (MEK1(h); 100 nM): 14% | inhibition at 1 µM (MEK1(h); 1000 nM): 8% | inhibition at 0.01 µM (HIPK2(h); 10 nM): 3% | inhibition at 0.1 µM (HIPK2(h); 100 nM): 6% | inhibition at 1 µM (HIPK2(h); 1000 nM): -10% | inhibition at 0.01 µM (Fes(h); 10 nM): -8% | inhibition at 0.1 µM (Fes(h); 100 nM): 36% | inhibition at 1 µM (Fes(h); 1000 nM): 91% | inhibition at 0.01 µM ([1]; 10 nM): 0% | inhibition at 0.1 µM ([1]; 100 nM): 1% | inhibition at 1 µM ([1]; 1000 nM): 4% | inhibition at 0.01 µM (SLK(h); 10 nM): 10% | inhibition at 0.1 µM (SLK(h); 100 nM): 34% | inhibition at 1 µM (SLK(h); 1000 nM): 81%
